How the values were obtained:
[1] = molecular target: T1, human 5-HT6 receptors (Homo sapiens, UniProt P50406); experiment: Radiolabelled ligand-receptor binding ([3H]-LSD) on cloned/transfected human 5-HT6 receptors; conditions: equated from the pKi value
T1 construct: purchased Perkin-Elmer; host or cells: HEK-293 (stably transfected), membranes
Experimental: To investigate the binding properties of 5-HT6 receptor ligands to human 5-HT6 receptors, transfected HEK-293 membranes from Perkin-Elmer and [3H]-LSD (NEN), as the radioligand, were used. The assay was carried out in 96-well plates with a total reaction volume of 200 µl, containing 100 µl of membrane suspension (35 µg protein/well), 10 µl of [3H]-LSD (2.7 nM) in either the absence or presence of 90 µl of either buffer or methiothepin (5 µM) for total and non-specific binding, respectively. Binding buffer contained 50 mMTris-HCl, 10 mM MgCl2 and 0.5 mM EDTA at pH 7.4. Plates were incubated at 37 °C for 60 minutes. After the incubation period, 170 µl of incubate were transferred to MultiScreen HTS, FC plates (Millipore), filtered and plates were washed 3 times with ice-cold 50mM Tris-HCl (pH 7.4). Filters were dried and counted at approximately 40% efficiency in a MicroBeta scintillation counter (Perkin-Elmer) using 25 µl per well of EcoScint liquid scintillation cocktail.

[2] = Feeding study: olanzapine-induced weight-gain and hyperphagia in rats on a high-fat diet; type: in vivo, female Sprague-Dawley rats; conditions: olanzapine 3 mg/kg po; for Mean body weight (g) Day 15: after 14 days of treatment, high-fat diet; for Mean body weight (g) Day 15 / Mean body weight (g) Day 0: n=10; for Mean body weight (g) Day 0: before treatment (baseline)
Experimental: The experiment was performed on 40 female Sprague-Dawley rats (originally in the weight range 250-300 g). The animal room was maintained at a temperature of 21±4°C and 55±20% humidity and on a reversed phase light-dark cycle (lights off for 8 h from 09.30-17.30 h) during which time the room was illuminated by red light. Animals had free access to powdered high fat diet (VRF1 plus 20% lard). The diet was contained in a glass feeding jar with an aluminium lid with a 3-4 cm hole cut in it to allow access to the food. Animals were housed singly in polypropylene cages with wire grid floors to enable the food intake of each rat to be recorded. Polypropylene trays containing cage pads were placed beneath each cage to detect any food spillage. Animals were accustomed to these new conditions (individual housing and the wire-grid floor cages) for at least 14 days before the start of the baseline readings.
Approximately a week before the start of the study, animals were weighed (to the nearest 0.1 g using an electronic top-pan balance) and allocated into 4 weight-matched treatment groups, each containing 10 animals. Following a 7 day baseline run-in period, during which the animals were dosed orally with vehicle (0.5% hydroxypropylmethylcellulose), to acclimatise them to dosing/handling, the rats were given treatments, described in the Table below, for 14 days.
Food intake and body weight were measured once daily. Variations in body weight were accounted for by expressing the food intake results in terms of g/kg rat weight.
(§1) Statistical comparisons between the body weights of the different treatment groups were made by analysis of covariance followed by multiple t tests (two-tailed) to compare each treatment group with the vehicle-treated controls. For the body weight data (body weights recorded each day), the weights of the animals on Day 1 (ie immediately before the first drug treatment) were used as the covariate. Thus, means were adjusted for differences in body weight between the groups on Day 1 and standard errors of the mean (SEM) were calculated from the residuals of the statistical model. All mean body weight values on Day 1 are identical (and SEM are therefore zero) because the analysis of covariance adjusts them all to equal the 'grand mean' of the values of this day.
Statistical comparisons between the food intakes of the different treatment groups were made by analysis of covariance followed by multiple t tests (two-tailed) to compare each treatment group with the vehicle-treated controls. Food intake of the animals at baseline (ie average of Day -6 to Day 0) was used as the covariate. Standard errors of the mean (SEM) were calculated from the residuals of the statistical model.
Analysis of body weights and average daily food intakes were also performed to analyse cumulative food intake and body weight changes. Analysis of covariance followed by post-hoc Student's t-test (two-tailed) was used to compare the average daily food intakes over Week 1 and Week 2 for COMPOUND 1 treatment group versus (a) the vehicle-treated and (b) the olanzapine-treated groups of rats. The body weights of all groups of rats before and after treatment were statistically compared pair-wise using Student's paired t-test (two-tailed).

[3] = Feeding study in dietary-induced obese (DIO) rats, comparison with sibutramine; type: in vivo, female Wistar rats; conditions: for body weight compared with the vehicle-treated controls / daily food intake: 28 days; for body weight compared with the vehicle-treated controls / daily food intake / days on which the decreases of food intake were statistically significant versus the vehicle-treated control group / weighed less than the vehicle-treated controls: COMPOUND 1 30 mg/kg po bid; for body weight compared with the vehicle-treated controls: sibutramine 5 mg/kg/day po once daily (Figure 4); for daily food intake: sibutramine 5 mg/kg/day po once daily (Figure 5); for days on which the decreases of food intake were statistically significant versus the vehicle-treated control group / weighed less than the vehicle-treated controls: sibutramine 5 mg/kg/day po; for weighed less than the vehicle-treated controls: end of treatment period (Day 28); for weight reductions: over the 28 daily treatment period, DIO rat (Figure 4)
Experimental: The experiment was performed on female Wistar rats (originally in the weight range 250-300 g). The rats were housed in pairs in polypropylene cages with solid floors and sawdust bedding at a temperature of 21±4°C and 55±20% humidity. Animals were maintained on a reverse phase light-dark cycle (lights off for 8 h from 09.30-17.30 h) during which time the room was illuminated by red light. Animals had free access to powdered high fat diet (VRF1 plus 20% lard), ground chocolate, ground peanuts and tap water at all times. The three different diets were contained in separate glass feeding jars with aluminum lids with a 3-4 cm hole cut in them to allow access to the food. Animals were housed in pairs for twelve weeks for the induction of obesity. Animals were then housed singly in polypropylene cages with wire grid floors to enable the food intake of each rat to be recorded. Polypropylene trays with cage pads were placed beneath each cage to detect any food spillage. Animals were accustomed to these new conditions (individual housing and the wire-grid floor cages) for at least 14 days before the start of the baseline readings.
At the start of the first DIO study, animals were weighed (to the nearest 0.1 g using an electronic top-pan balance) and allocated into 3 weight-matched treatment groups, each containing 10 animals. Following a 7 day baseline run-in period, during which time all animals were dosed orally once a day with vehicle (0.5% hydroxypropylmethylcellulose), rats were dosed for 28 days with vehicle at 0 and 6 h or test compound either COMPOUND 1 (30 mg/kg, p.o., twice a day at 0 and 6 h) or sibutramine (5 mg/kg, p.o. at 0 h / vehicle p.o. at 6 h). The first compound dose was given at the onset of the 8 h dark period (0 h). This strategy was taken to maximise the impact of any inhibitory effect of the compounds on food intake as rats are predominantly nocturnal feeders. Six hours later, animals were dosed again with either vehicle or compounds.
Food intake and body weight were measured once daily. Variations in body weight and energy levels of the different types of food were accounted for by expressing the food intake results in terms of kJ/kg rat weight.
as §1, with “body weights and daily food intakes of the” for “body weights of the”, “treatment groups have been made by” for “treatment groups were made by”, “followed by Dunnett's test to compare” for “followed by multiple t tests (two-tailed) to compare”, “(body weights each day),” for “(body weights recorded each day),”

[4] = molecular target: rat variant of the 5-HT6 receptor (Rattus norvegicus, UniProt P31388); conditions: Romero et al, 2006; cited from earlier work
[5] = molecular target: human variant of the 5-HT6 receptor (Homo sapiens, UniProt P50406); conditions: Romero et al, 2006; cited from earlier work
[6] = 5-HT6 antagonists; Svartengren et al, 2004; Shacham et al, 2006; cited from earlier work
[7] = molecular target: 5-HT6 receptors (Rattus norvegicus, UniProt P31388); conditions: Roth et al, 1994; cited from earlier work
[8] = repeated sibutramine administration, 14 days (Figure 7); cited from earlier work

Chain of 5-HT6 receptors (P31388 whole entry): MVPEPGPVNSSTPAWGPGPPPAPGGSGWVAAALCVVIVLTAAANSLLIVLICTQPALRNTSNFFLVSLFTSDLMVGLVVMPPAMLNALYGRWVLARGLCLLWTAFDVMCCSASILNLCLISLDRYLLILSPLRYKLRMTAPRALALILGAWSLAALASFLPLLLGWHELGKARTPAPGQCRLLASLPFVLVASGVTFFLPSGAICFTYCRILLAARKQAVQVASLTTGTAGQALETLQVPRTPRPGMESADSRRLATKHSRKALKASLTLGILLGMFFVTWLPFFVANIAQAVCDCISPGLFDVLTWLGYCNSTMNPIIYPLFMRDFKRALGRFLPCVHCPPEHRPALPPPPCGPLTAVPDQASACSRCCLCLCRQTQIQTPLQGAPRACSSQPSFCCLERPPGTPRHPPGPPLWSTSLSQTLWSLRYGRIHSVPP
T1 sequence (P50406 whole entry): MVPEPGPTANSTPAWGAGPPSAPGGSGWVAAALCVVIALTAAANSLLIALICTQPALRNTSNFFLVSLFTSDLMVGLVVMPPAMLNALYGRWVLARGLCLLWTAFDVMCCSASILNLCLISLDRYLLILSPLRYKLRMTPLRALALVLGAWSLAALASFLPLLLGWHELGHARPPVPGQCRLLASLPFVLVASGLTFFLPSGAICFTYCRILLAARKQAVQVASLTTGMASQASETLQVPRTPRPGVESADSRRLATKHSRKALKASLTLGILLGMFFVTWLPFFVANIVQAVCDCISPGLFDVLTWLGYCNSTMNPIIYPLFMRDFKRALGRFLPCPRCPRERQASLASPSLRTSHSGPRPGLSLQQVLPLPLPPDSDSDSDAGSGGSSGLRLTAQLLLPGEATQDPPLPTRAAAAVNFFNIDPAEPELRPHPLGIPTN

CN(C)CCc1c[nH]c2ccc(NS(=O)(=O)c3ccc4c(Cl)cccc4c3)cc12 [COMPOUND 1, 5-Chloro-naphthalene-2-sulfonic acid [3-(2-dimethylamino-ethyl)-1H-indol-5-yl]-amide]
Ki [1]: 0.74 nM
body weight compared to the vehicle + vehicle-treated control ([2]; 14 days, COMPOUND 1 30 mg/kg po bid, high-fat diet (Figure 1)): gradual decrease in body weight
daily food intake compared to the vehicle-treated controls ([2]; 14 days, COMPOUND 1 30 mg/kg po bid, high-fat diet (Figure 2)): markedly reduced their food intakes
cumulative intake of food over the first week compared to the vehicle controls ([2]; Week 1, COMPOUND 1 30 mg/kg po bid (Figure 3)): statistically lower (p < 0.001)
Mean body weight (g) Day 15 ([2]; COMPOUND 1 30 mg/kg po bid): 289.5 ± 6.1 g
Mean body weight (g) Day 0 ([2]; COMPOUND 1 30 mg/kg po bid): 292.8 ± 7.2 g
body weight compared with the vehicle-treated controls [3]: marked and sustained decrease in the body weights
daily food intake [3]: reduction in daily food intake
days on which the decreases of food intake were statistically significant versus the vehicle-treated control group [3]: Day 2 to Day 8
weighed less than the vehicle-treated controls [3]: 15.6%
weight reductions [3]: greater than 10%
functionality at the 5-HT6 receptor [4]: agonist
functionality at the 5-HT6 receptor [5]: agonist

Cc1cc2c(s1)Nc1ccccc1N=C2N1CCN(C)CC1 [Olanzapine]
Mean body weight (g) Day 15 ([2]; COMPOUND 1 30 mg/kg po bid): 333.0 ± 8.2 g
Mean body weight (g) Day 0 ([2]; COMPOUND 1 30 mg/kg po bid): 296.9 ± 7.2 g

COc1cc(Cl)cc(C(C)Nc2cc(N3CCNCC3)ccc2S(C)(=O)=O)c1OC.Cl (stereo not shown) [PRX-07034]
food intake and body weight in obese rodents [6]: reduce food intake and produce sustained weight-loss

OC1(c2ccc(Cl)c(C(F)(F)F)c2)CCN(CCCC(c2ccc(F)cc2)c2ccc(F)cc2)CC1 [penfluridol]
affinity for this 5-HT receptor subtype (5-HT6) [7]: no relevant affinity

CCN1CCC[C@H]1CNC(=O)c1c(O)c(Cl)cc(Cl)c1OC [raclopride]
affinity for this 5-HT receptor subtype (5-HT6) [7]: no relevant affinity

C[C@@H]1CN(CCCn2c3ccccc3c3ccccc32)C[C@H](C)N1 [rimcazole]
affinity for this 5-HT receptor subtype (5-HT6) [7]: no relevant affinity

CC(C)CC(N(C)C)C1(c2ccc(Cl)cc2)CCC1 (stereo not shown) [sibutramine]
body weight compared with the vehicle-treated controls [3]: significant body weight-loss
daily food intake [3]: significant reduction of food intake
days on which the decreases of food intake were statistically significant versus the vehicle-treated control group [3]: Day 1 to Day 5
weighed less than the vehicle-treated controls [3]: 10.8%
weight reductions [3]: greater than 10%
effect on the weight-gain evoked by olanzapine [8]: only partially to attenuate the weight-gain

Reference: patent publication EP2018861A1, “5HT6-Ligands such as sulfonamide derivatives in drug-induced weight-gain” (Laboratorios del Dr. Esteve S.A., priority 2007, dated 2009)
